Experimental data: ChEMBL document CHEMBL3045588, “Synthesis and Bleaching Activity of 3-Propargylthio-4-(substituted phenyl)-4H-1, 2, 4-triazoles” (1995)
Activity calls are given as the source filed them. No cut-off for these calls is given here.

Tests used:
Lactuca sativa [1] = test: Bleaching activity against Lactuca sativa cv. Sacramento (lettuce) seedlings assessed as bleaching ratings at 3 ppm incubated for 4 days at 25 degC under 12 hr photoperiod; type: functional
Lactuca sativa [2] = test: Bleaching activity against Lactuca sativa cv. Sacramento (lettuce) seedlings assessed as bleaching ratings at 25 ppm incubated for 4 days at 25 degC under 12 hr photoperiod; type: functional
Lactuca sativa [3] = test: Bleaching activity against Lactuca sativa cv. Sacramento (lettuce) seedlings assessed as bleaching ratings at 5 ppm incubated for 4 days at 25 degC under 12 hr photoperiod; type: functional
Lactuca sativa [4] = test: Bleaching activity against Lactuca sativa cv. Sacramento (lettuce) seedlings assessed as bleaching ratings at 1 ppm incubated for 4 days at 25 degC under 12 hr photoperiod; type: functional
Lactuca sativa [5] = test: Bleaching activity against Lactuca sativa cv. Sacramento (lettuce) seedlings assessed as bleaching ratings at 10 ppm incubated for 4 days at 25 degC under 12 hr photoperiod; type: functional
Lactuca sativa [6] = test: Bleaching activity against Lactuca sativa cv. Sacramento (lettuce) seedlings assessed as bleaching ratings at 50 ppm incubated for 4 days at 25 degC under 12 hr photoperiod; type: functional
Radish [7] = test: Reduction in chlorophyll content in Raphanus sativus cv. Osaka (radish) seedlings at 10 uM incubated for 4 days at 25 degC under dark conditions; type: functional, organism-based
Radish [8] = test: Reduction in chlorophyll content in Raphanus sativus cv. Osaka (radish) seedlings at 10 uM incubated for 4 days at 25 degC under 12 hr photoperiod by spectrophotometry; type: functional; design: scale not given: the % may be the effect or the level left
Radish [9] = test: Induction of phytoene accumulation in Raphanus sativus cv. Osaka (radish) seedlings at 10 to 100 uM incubated for 4 days at 25 degC under dark conditions; type: functional, organism-based
Radish [10] = test: Reduction in carotenoid content in Raphanus sativus cv. Osaka (radish) seedlings at 10 uM incubated for 4 days at 25 degC under 12 hr photoperiod; type: functional; design: scale not given: the % may be the effect or the level left
Radish [11] = test: Reduction in beta-carotene content in Raphanus sativus cv. Osaka (radish) seedlings at 10 to 100 uM incubated for 4 days at 25 degC under dark conditions; type: functional, organism-based
Radish [12] = test: Reduction in carotenoid content in Raphanus sativus cv. Osaka (radish) seedlings at 10 uM incubated for 4 days at 25 degC under dark conditions; type: functional, organism-based
Radish [13] = test: Reduction in carotenoid content in Raphanus sativus cv. Osaka (radish) seedlings at 10 to 100 uM incubated for 4 days at 25 degC under 12 hr photoperiod; type: functional, organism-based
Radish [14] = test: Reduction in chlorophyll content in Raphanus sativus cv. Osaka (radish) seedlings at 10 to 100 uM incubated for 4 days at 25 degC under 12 hr photoperiod by spectrophotometry; type: functional, organism-based
Radish [15] = test: Induction of phytoene accumulation in Raphanus sativus cv. Osaka (radish) seedlings at 50 uM incubated for 4 days at 25 degC under dark conditions relative to untreated control; type: functional
Radish [16] = test: Reduction in phytoene accumulation in Raphanus sativus cv. Osaka (radish) seedlings at 100 uM incubated for 4 days at 25 degC under dark conditions relative to untreated control; type: functional, organism-based
Radish [17] = test: Reduction in carotenoid content in Raphanus sativus cv. Osaka (radish) seedlings at 100 uM incubated for 4 days at 25 degC under 12 hr photoperiod; type: functional, organism-based
Radish [18] = test: Reduction in chlorophyll content in Raphanus sativus cv. Osaka (radish) seedlings at 100 uM incubated for 4 days at 25 degC under 12 hr photoperiod by spectrophotometry; type: functional, organism-based

Row | Compound | Activity (Lactuca sativa [1]) | Activity (Lactuca sativa [2]) | Activity (Lactuca sativa [3]) | Activity (Lactuca sativa [4]) | Activity (Lactuca sativa [5]) | Activity (Lactuca sativa [6]) | other results
1 | C#CCSc1nncn1-c1ccc(C)cc1 | 1 | 3 | 3 | 0 | 3 |  | 
2 | CSc1nncn1-c1ccccc1 |  | 0 |  |  | 0 | 0 | 
3 | C=CCSc1nncn1-c1ccccc1 |  | 0 |  |  | 0 | 0 | 
4 | C#CCSc1nncn1-c1cccc(C(F)(F)F)c1 | 1 | 3 | 2 | 0 | 3 |  | 
5 | CCSc1nncn1-c1ccccc1 |  | 2 |  |  | 1 | 3 | 
6 | C#CCSc1nncn1-c1ccc(OCC)cc1 | 1 | 3 | 2 | 0 | 3 |  | 
7 | C#CCSc1nncn1-c1cccc(Cl)c1 | 2 | 4 | 3 | 0 | 3 |  | Activity (Radish [7]): Active; Activity (Radish [8]): 60%; Activity (Radish [9]): Active; Activity (Radish [10]): 60%; Activity (Radish [11]): Active; Activity (Radish [12]): Active; Activity (Radish [13]): Active; Activity (Radish [14]): Active
8 | CCCS(=O)(=O)c1nncn1-c1ccccc1 |  | 0 |  |  | 0 | 0 | 
9 | C#CCSc1nncn1-c1ccc(Cl)c(Cl)c1 | 2 | 4 | 3 | 0 | 4 |  | 
10 | C#CCSc1nncn1-c1ccc(Cl)cc1 | 1 | 4 | 2 | 0 | 3 |  | Activity (Radish [7]): Active; Activity (Radish [8]): 60%; Activity (Radish [9]): Active; Activity (Radish [10]): 60%; Activity (Radish [11]): Active; fold change (FC) (Radish [15]): 150; Activity (Radish [12]): Active; Activity (Radish [13]): Active; Activity (Radish [14]): Active; Activity (Radish [16]): Active
11 | CCCSc1nncn1-c1ccccc1 |  | 2 |  |  | 1 | 4 | 
12 | C#CCSc1nncn1-c1ccccc1 | 0 | 3 | 0 | 0 | 1 | 4 | 
13 | C#CCSc1nncn1-c1ccccc1Cl | 0 | 0 | 0 | 0 | 0 |  | Activity (Radish [17]): inactive; Activity (Radish [18]): inactive
14 | CCCCSc1nncn1-c1ccccc1 |  | 1 |  |  | 0 | 2 | 
15 | c1ccc(CSc2nncn2-c2ccccc2)cc1 |  | 1 |  |  | 1 | 2 | 
16 | C#CCSc1nncn1-c1ccc(C(F)(F)F)cc1 | 1 | 3 | 2 | 0 | 3 |  | 
17 | Sc1nncn1-c1ccccc1 |  | 0 |  |  | 0 | 0 | 
18 | COCSc1nncn1-c1ccccc1 |  | 0 |  |  | 0 | 0 | 
